Assay results published in ChEMBL document CHEMBL4433265, “Discovery of human lactate dehydrogenase 5 inhibitors (hLDH5) with anti-lung cancer activity through an in silico method and biological validation” (Bioorg Med Chem Lett, 2019).
Activity calls are given as the source filed them. The rule behind the calls is not given here.

Assays:
[1] = biological target: T1, L-lactate dehydrogenase A chain (Homo sapiens, UniProt P00338); experiment: Inhibition of His-tagged human LDHA at 10 uM incubated for 10 mins using NADH and pyruvate by microplate reader based assay
A549 = experiment: Growth inhibition of human A549 cells at 50 uM incubated for 72 hrs by MTT assay; format: functional; settings: for inhibition of growth at 50 µM: A549, 72 h, read-out: GI
NCI-H1975 [2] = experiment: Growth inhibition of human NCI-H1975 cells at 50 uM incubated for 72 hrs by MTT assay; format: functional; settings: for inhibition of growth at 50 µM: NCI-H1975, 72 h, read-out: GI
NCI-H1975 [3] = experiment: Growth inhibition of human NCI-H1975 cells at 10 uM under normal oxygenated conditions by IncuCyte zoom live cell analysis; format: cell-based; settings: nci-h1975, 10 µM
[4] = biological target: T1, L-lactate dehydrogenase A chain; experiment: Binding affinity to His-tagged human LDHA in absence of NAD+ by isothermal titration calorimetry
[5] = biological target: T1, L-lactate dehydrogenase A chain; experiment: Binding affinity to His-tagged human LDHA in presence of NAD+ by isothermal titration calorimetry
[6] = biological target: T1, L-lactate dehydrogenase A chain; experiment: Inhibition of LDHA in human NCI-H1975 cells assessed as reduction in lactate production incubated for 4 hrs; format: cell-based
NCI-H1975 [7] = experiment: Growth inhibition of human NCI-H1975 cells under hypoxic conditions by IncuCyte zoom live cell analysis; format: functional, cell-based
[8] = biological target: T1, L-lactate dehydrogenase A chain; experiment: Inhibition of His-tagged human LDHA incubated for 10 mins using NADH and pyruvate by microplate reader based assay
NCI-H1975 [9] = experiment: Growth inhibition of human NCI-H1975 cells at 10 uM under hypoxic conditions by IncuCyte zoom live cell analysis; format: functional, cell-based
NCI-H1975 [10] = experiment: Growth inhibition of human NCI-H1975 cells under normal oxygenated conditions by IncuCyte zoom live cell analysis; format: cell-based

SMILES | inhibition [1] | growth inhibition (GI) (A549) | growth inhibition (GI) (NCI-H1975 [2]) | inhibition of growth at 50 µM (A549) | inhibition of growth at 50 µM (NCI-H1975 [2]) | other results
Cc1ncn(CC(=O)N2CCC(Oc3cncc(N(C)C)n3)C2)c(=O)c1C (stereo not drawn) | 66.3% | inactive | inactive |  |  | 
O=C1N[C@](c2ccc(N3CCOCC3)cc2)(c2ccsc2)CC(O)=C1Sc1ccccc1Cl | 100% |  |  | 100% | 100% | 
O=C(c1cc2n(n1)CCCC2)N1CCN(C(=O)C2(c3cccs3)CCCC2)CC1 | inactive | inactive | inactive |  |  | 
COc1cc(=O)n2c(c1CCCc1cc(OC)c(OC)c(OC)c1)CCC2 | 25.7% | inactive | inactive |  |  | 
N#Cc1cccnc1N1CCC(CNC(=O)C(=O)Nc2cccc(C(F)(F)F)c2)CC1 | inactive |  |  | 33.5% | 25.9% | 
COc1cccc(OCC(=O)Nc2ccc3c(c2)NC(=O)C(C)(C)CO3)c1 | inactive |  |  | 26.9% | 15.3% | 
O=C(c1cc2n(n1)CCCO2)N1CCC(N2CCN(c3ncccc3C(F)(F)F)CC2)CC1 | inactive | inactive | inactive |  |  | 

Further lines, with some results ahead:

inhibition [1] | SMILES | growth inhibition (GI) (A549) | growth inhibition (GI) (NCI-H1975 [2]) | inhibition of growth at 50 µM (A549) | inhibition of growth at 50 µM (NCI-H1975 [2]) | other results
45.8% | O=C(CNC1CCN(c2ncc(F)cn2)CC1)COCc1ccccc1 |  |  | 55.3% | 39.8% | 
95.2% | O=C(NCC(=O)N1CCC(Cc2nc(C3CC3)no2)CC1)c1ccccc1 |  |  | 69.3% | 58.7% | growth inhibition (GI) (NCI-H1975 [3]): Non-Toxic; Kd [4]: 43.2 µM; Kd [5]: 1.02 µM; inhibition [6]: Dose-dependent effect; IC50 (NCI-H1975 [7]): 5.7 µM; EC50 [8]: 0.7 µM; growth inhibition (GI) (NCI-H1975 [9]): Active; IC50 (NCI-H1975 [10]): 36.5 µM
78.5% | COc1ccccc1OCC(=O)NC1CCC(Oc2nc(C)cc(C)n2)CC1 (stereo not drawn) |  |  | 23.3% | 45.2% | 
